Patent US20240307416A1, “FILM-FORMING COMPOSITIONS COMPRISING SALICYLIC ACID AND METHODS OF USE” (3M INNOVATIVE PROPERTIES COMPANY, priority 2021, published 2024)

Experiment: Dissolution of salicylic acid in film-forming gel components
Type: physicochemical

- Solubility of salicylic acid in the silicate tackifying resin and/or the volatile solvent: does not appear to be readily soluble
SMILES: O=C(O)c1ccccc1O [salicylic acid]
- Dissolution of salicylic acid in the formulation of U.S. Pat. No. 10,603,405 (SPOx added at the end of the manufacture): did not appear dissolve and remained a solid particulate
